Laboratory results as given in PubChem BioAssay AID182 (DTP/NCI, 2004).
Inconclusive results and toxic doses are left out.

System: BDF1 mice, P388/ADR leukemia ip, median survival T/C
Test: NCI In Vivo Anticancer Drug Screen. Data for tumor model P388 Leukemia resistant to Adriamycin; NSC 123127, Developed at Scr 06 and 41 (intraperitoneal) in B6D2F1 (BDF1) mice
Settings: endpoint: median survival time, schedule: Q04DX003 (ip), higher = longer survival
Experimental: The antitumor activity of compounds was measured in mice bearing transplantable tumors. Survival or tumor size were measured and the results are expressed as the measurement made in the treated group (T) divided by the measurement made in the vehicle treated control group (C). The tumor model used in this assay is P388 Leukemia resistant to Adriamycin; NSC 123127, Developed at Scr 06 and 41 (intraperitoneal) in B6D2F1 (BDF1) mice

Q: With `CC1OC(OC2CC(O)(C(=O)CO)Cc3c(O)c4c(c(O)c32)C(=O)c2ccccc2C4=O)CC(N)C1O` (stereo unspecified) as the compound, how does the T/C (dose: 216.0 micrograms/kg/injection, vehicle: water) read?
A: Its T/C is 100 % of control.

Q: And the T/C (dose: 360.0 micrograms/kg/injection, vehicle: water)?
A: The T/C was 102 % of control.

Q: What about the T/C (dose: 600.0 micrograms/kg/injection, vehicle: water) of the same compound?
A: The T/C was 101 % of control.

Q: What about the T/C (dose: 1000.0 micrograms/kg/injection, vehicle: water) of the same compound?
A: The T/C was 99 % of control.

Q: Which T/C (dose: 10.8 mg/kg/injection, vehicle: saline) does the source give for `CCC1=C(C[C@H]2NCCc3cc(OC)c(OC)cc32)C[C@H]2c3cc(OC)c(OC)cc3CCN2C1` here?
A: Its T/C is 108 % of control.

Q: And the T/C (dose: 18.0 mg/kg/injection, vehicle: saline)?
A: The T/C was 96 % of control.

Q: And the T/C (dose: 30.0 mg/kg/injection, vehicle: saline)?
A: Its T/C is 107 % of control.

Q: `COc1cccc2c1C(=O)c1c(O)c3c(c(O)c1C2=O)C[C@@](O)(C(=O)CO)C[C@@H]3OC1CC([N+](C)(C)C)C(O)C(C)O1` (stereo partly specified) was tested. Which T/C (dose: 8.64 mg/kg/injection, vehicle: water) did it give?
A: Its T/C is 99 % of control.

Q: And the T/C (dose: 14.4 mg/kg/injection, vehicle: water)?
A: Its T/C is 99 % of control.

Q: For `O=C[C@@H](CO)O[C@H](C=O)n1cnc2c(=O)[nH]cnc21`, which T/C (dose: 180.0 mg/kg/injection, vehicle: water) is on record?
A: The T/C was 162 % of control.

Q: What about the T/C (dose: 300.0 mg/kg/injection, vehicle: water) of the same compound?
A: Its T/C is 203 % of control.

Q: With `COc1cc2c[n+](C)c3c4cc5c(cc4ccc3c2cc1OC)OCO5` as the compound, how does the T/C (dose: 28.8 mg/kg/injection, vehicle: Klucel (hydroxypropylcellulose) (HPC)) read?
A: The T/C was 123 % of control.

Q: And the T/C (dose: 48.0 mg/kg/injection, vehicle: Klucel (hydroxypropylcellulose) (HPC))?
A: Its T/C is 105 % of control.

Q: And the T/C (dose: 55.0 mg/kg/injection, vehicle: other)?
A: The T/C was 107 % of control.

Q: And the T/C (dose: 80.0 mg/kg/injection, vehicle: Klucel (hydroxypropylcellulose) (HPC))?
A: Its T/C is 124 % of control.

Q: What about the T/C (dose: 92.0 mg/kg/injection, vehicle: other) of the same compound?
A: The T/C was 106 % of control.
